# Where two headings read alike, the source gives them in different places.
# Settings: 40° C., 15 g, UV8 membrane, 1.6 mm orifice
# From the text: All prototype lure devices (i.e., the attractant receptacle and permeable membrane with enclosed volatile insect attractant) were constructed using polypropylene/calcium carbonate film (UV8) for the permeable membrane and Scotchpak™ (3M) polyester laminate film for the impermeable barrier material. Each lure device measured approximately 11.5 cm×5.5 cm with a 1.6 mm ( 1/16 in) diameter spherical punch in the impermeable layer exposing the membrane and an ˜8 mm ( 5/16 in) diameter heat seal around the circumference of the punch (referred to as a ring seal). […] Prior to being deployed the lures were weighed on an analytical balance (Sartorius, Universal; resolution of 0.01 g). Prototype lures were attached to a cord that ran the length of ventilated laboratory fume hood, with 5-8 cm (2-3 in) separating each lure in an open, ventilated room at the indicated temperature (18-20° C. or 39-41° C.). Every 2-3 days the lures were removed from the cord and weighed on the same scale. Lure weight was recorded and the weight loss (g/day) was calculated. In addition to prototype lures, two controls were included in the study consisting of a current Suterra lure product (WHF lure) and a competitor product (Comp. Prod. 1).
smiles,measurement,setting,value
"N.NC(=O)O [CM-NR, Ammonium carbamate]",Attractant Release Rate (5-day average per time point),day 5,338.4 mg/day
same,Attractant Release Rate (5-day average per time point),day 10,346.8 mg/day
same,Attractant Release Rate (5-day average per time point),day 15,370.0 mg/day
same,Attractant Release Rate (5-day average per time point),day 20,413.7 mg/day
same,Attractant Release Rate (5-day average per time point),day 25,440.0 mg/day
same,Attractant Release Rate (5-day average per time point),day 30,429.7 mg/day
same,Attractant Release Rate (5-day average per time point),day 35,408.5 mg/day
same,Attractant Release Rate (5-day average per time point),day 40,193.2 mg/day
same,Attractant Release Rate (5-day average per time point),day 45,0.0 mg/day
same,Attractant Release Rate (5-day average per time point),day 49,0.0 mg/day
same,Attractant Release Rate (5-day average per time point),day 55,0.0 mg/day
